Results from paper PMC6100472, “Cyclodextrins: Assessing the Impact of Cavity Size, Occupancy, and Substitutions on Cytotoxicity and Cholesterol Homeostasis” (Molecules : A Journal of Synthetic Chemistry and Natural …, 2018).
In brackets after ≈: the same amount, converted by molar mass.

Key:
[1] = tested on: isolated human erythrocytes; experiment: In vitro hemolysis test using isolated human erythrocytes; type: cell-based
Protocol: Venous blood was taken from healthy volunteers and placed in plastic tubes containing sodium–citrate anti-coagulant. The cell fraction including erythrocytes was separated from the plasma components by centrifugation (2500× g, 10 min, 20 °C), washed three times with phosphate buffered saline (PBS) solution, and re-suspended in the same solution. The erythrocyte count was adjusted to 10^9 per mL under the control of a Laborscale cell analyzer (Medicor, Hungary). The test was performed in standard Eppendorf-type plastic tubes, where the incubation mixture consisted of 1.3 mL of reagent solution containing increasing concentrations of CDs dissolved in PBS, 0.05 mL of erythrocyte suspension containing 5 × 10^7 red blood cells, and 0.05 mL of 3% Na2CO3. After 10 min incubation at 37 °C, samples were mixed and centrifuged at 5000x g. The absorbance of the released hemoglobin in the supernatant was determined at 540 nm spectrophotometrically. As a reference, total (100%) hemolysis was obtained by replacing PBS with distilled water. CD-induced hemolysis was related to this reference value and expressed as percent hemolysis. All of the experiments included at least 10 different concentrations of the test materials in triplicate runs to allow the plotting of dose-effect curves from multi-point determinations, and to calculate EC50 values. In order to investigate the protective effect of plasma components, aliquots of PBS were replaced by 50 µL, 100 µL, and 200 µL of blood plasma in the incubation mixture. Plasma protein concentration was determined by the biuret method.

[2] = tested on: whole blood (erythrocytes); experiment: In vitro hemolysis test in whole blood samples; type: cell-based, human; conditions: RBC count 1 × 10^9
Protocol: For these experiments, healthy volunteers with identical main blood groups [A, Rhesus blood factor D (Rh) positive] but differing in their plasma lipid contents were selected. Plasma and cellular blood components were separated from the freshly taken sodium-citrated blood by centrifugation (2500× g, 10 min, 4 °C). The sedimented composite cellular fraction (red and white blood cells, and platelets) was washed with PBS, then re-suspended either in their own original plasma or in the foreign plasma with the identical blood group, resulting in erythrocyte/plasma combinations of normal cholesterol/lipid levels or higher cholesterol/lipid levels. The erythrocyte count was adjusted to 4 × 10^9 per mL in the blood. In this case, hemolysis test mixtures contained 0.04 mL of test solution with increasing concentrations of methyl-β-CD, 0.25 mL of blood, and 0.01 mL of 3% Na2CO3. Incubation and subsequent centrifugation conditions were identical to the above. Aliquots of the supernatant were diluted using PBS (containing 3% Na2CO3), and their hemoglobin content was determined. Again, dose-effect curves were constructed from multi-point determinations of triplicate runs. The levels of cholesterol, high-density lipoprotein (HDL), and triglyceride in plasma were determined by the use of standard laboratory procedures.

[3] = tested on: primary fibroblast cells from an NPC patient (NPC1 mutant); experiment: Intracellular cholesterol distribution by Filipin III staining; type: cell-based, human; conditions: 1 mM, 72 h, NPC1 mutant primary fibroblasts
Protocol: We determined the effects of the CD derivatives on intracellular cholesterol accumulation in primary fibroblast cells derived from an NPC patient using Filipin III, a fluorescent compound that specifically binds to unesterified cholesterol. After treatment with the CD derivatives (1 mM) for 72 h, the cells were examined for the fluorescent intensity of Filipin III using a fluorescence microscope. […] Studies are underway to define the molecular mechanisms by which HPβCD and HPγCD alleviate the cholesterol-trafficking defect. Cells were incubated in medium containing CD derivatives at 1 mM for 72 h. Cells were washed three times with PBS and fixed with 3.7% paraformaldehyde for 30 min at room temperature. After washing with PBS, cells were stained with PBS containing Filipin III (12.5 μg/mL) for 30–45 min at room temperature in the dark. After washing with PBS and applying a mounting medium, cells were analyzed using a Nikon TE2000 widefield microscope (Nikon, Melville, NY, USA).

[4] = tested on: HEK293T cells; experiment: MTS cell viability assay (CellTiter 96 AQueous One) in HEK293T cells; type: cell-based, human; conditions: 10 mM, 24 h
Protocol: (§1) The CD/lipid inclusion complexes were then tested for their ability to reduce the metabolic activity (or cell viability) in HEK293T cells and HeLa cells (Figure 4) using the CellTiter 96 AQueous One Solution Cell Proliferation Assay Kit (Promega). Cells were treated with 10 mM of the free RAMEB, cholesterol-loaded RAMEB, linoleic acid-loaded RAMEB, or β-sitosterol-loaded RAMEB. At 24 h after treatment, a cell viability assay was conducted, and the absorbance at 490 nm was measured to determine the levels of the reaction products that were generated in metabolically active cells. Triton X-100 (TX) was included as a positive control for cytotoxicity. […]
(§2) The effects of CD treatment on cell viability and cytotoxicity were determined using the CellTiter 96 AQueous One Solution Cell Proliferation Assay Kit (Promega) and LDH Cytotoxicity Assay Kit (Thermo Fisher Scientific), respectively. […] The absorbance of the plates was recorded at 490 nm with an xMark microplate absorbance spectrophotometer (Bio-Rad, Hercules, CA, USA). […] Extracellular LDH in the media can be quantified by a coupled enzymatic reaction in which LDH catalyzes the conversion of lactate to pyruvate via nicotinamide adenine dinucleotide (NAD^+) reduction to NADH. Diaphorase then uses NADH to reduce a tetrazolium salt (INT) to a red formazan product that can be measured at 490 nm. […]

[5] = tested on: HeLa cells; experiment: MTS cell viability assay (CellTiter 96 AQueous One) in HeLa cells; type: cell-based, human; conditions: 10 mM, 24 h
Protocol: as §1, §2

[6] = isolated human erythrocytes in PBS, no plasma
[7] = isolated human erythrocytes in PBS, plasma 50 μL
[8] = isolated human erythrocytes in PBS, plasma 100 μL
[9] = isolated human erythrocytes in PBS, plasma 200 μL

Row | Molecule | Hemolytic EC50 [1, 6] [µg/mL] | Hemolytic EC50 [1, 7] [µg/mL] | Hemolytic EC50 [1, 8] [µg/mL] | Hemolytic EC50 [1, 9] [µg/mL] | Effect on intracellular cholesterol accumulation (Filipin III fluorescence) [3] | further results
1 | COC[C@H]1O[C@@H]2O[C@H]3[C@H](O)[C@@H](OC)[C@@H](O[C@H]4[C@H](O)[C@@H](OC)[C@@H](O[C@H]5[C@H](O)[C@@H](OC)[C@@H](O[C@H]6[C@H](O)[C@@H](OC)[C@@H](O[C@H]7[C@H](O)[C@@H](OC)[C@@H](O[C@H]8[C@H](O)[C@@H](OC)[C@@H](O[C@H]1[C@H](O)[C@H]2OC)O[C@@H]8COC)O[C@@H]7COC)O[C@@H]6COC)O[C@@H]5COC)O[C@@H]4COC)O[C@@H]3COC [DIMEB-50, Heptakis (2,6-di-O-methyl)-β-cyclodextrin] | 1200 ± 200 | 8500 ± 200 | 9400 ± 400 | 11900 ± 300 | – | EC50DIMEB (hemolytic potency) ([1]; 5 mg/mL BSA (Figure 2)): 1380 µg/mL (≈ 1040 µM); EC50DIMEB (hemolytic potency) ([1]; 10 mg/mL bovine serum albumin (BSA) (Figure 2)): 1530 µg/mL (≈ 1150 µM); EC50DIMEB (hemolytic potency) ([1]; 100-µL plasma resulting in 5 mg/mL protein concentration in the mixture (Figure 2)): 9380 µg/mL; EC50DIMEB (hemolytic potency) ([1]; 200-µL plasma resulting in 10 mg/mL protein concentration in the mixture (Figure 2)): 11960 µg/mL; Hemolytic EC50 ([1]; RBCs-washed, 200 μL plasma added, plasma CHO 0.76 mM, HDL 0.25 mM, TG 0.13 mM, RBC count 5 × 10^7): 12600 ± 200 µg/mL; Hemolytic EC50 ([1]; RBCs-washed, no plasma added, RBC count 5 × 10^7): 1320 ± 100 µg/mL; Hemolytic EC50 ([2]; plasma CHO 2.22 mM, HDL 1.13 mM, TG 0.48 mM): 18000 ± 200 µg/mL; Hemolytic EC50 ([2]; plasma CHO 4.38 mM, HDL 0.58 mM, TG 1.08 mM): 22400 ± 400 µg/mL
2 | CC(O)COC[C@H]1O[C@@H]2O[C@H]3[C@H](O)[C@@H](O)[C@@H](O[C@H]4[C@H](O)[C@@H](O)[C@@H](O[C@H]5[C@H](O)[C@@H](O)[C@@H](O[C@H]6[C@H](O)[C@@H](O)[C@@H](O[C@H]7[C@H](O)[C@@H](O)[C@@H](O[C@H]8[C@H](O)[C@@H](O)[C@@H](O[C@H]1[C@H](O)[C@H]2O)O[C@@H]8COCC(C)O)O[C@@H]7COCC(C)O)O[C@@H]6COCC(C)O)O[C@@H]5COCC(C)O)O[C@@H]4COCC(C)O)O[C@@H]3COCC(C)O (stereo partly drawn) [HPβCD, Hydroxypropyl-β-cyclodextrin] | – | – | – | – | reduction in cholesterol accumulation | –
3 | COC[C@H]1O[C@@H]2O[C@H]3[C@H](O)[C@@H](OC)[C@@H](O[C@H]4[C@H](O)[C@@H](OC)[C@@H](O[C@H]5[C@H](O)[C@@H](OC)[C@@H](O[C@H]6[C@H](O)[C@@H](OC)[C@@H](O[C@H]7[C@H](O)[C@@H](OC)[C@@H](O[C@H]8[C@H](O)[C@@H](OC)[C@@H](O[C@H]1[C@H](O)[C@H]2OC)O[C@@H]8COC)O[C@@H]7COC)O[C@@H]6COC)O[C@@H]5COC)O[C@@H]4COC)O[C@@H]3COC [DIMEB-95, Heptakis (2,6-di-O-methyl)-β-cyclodextrin] | 1200 ± 300 | 4700 ± 400 | 6500 ± 600 | 8800 ± 500 | – | –
4 | COC[C@H]1O[C@@H]2O[C@H]3[C@H](OC)[C@@H](OC)[C@@H](O[C@H]4[C@H](OC)[C@@H](OC)[C@@H](O[C@H]5[C@H](OC)[C@@H](OC)[C@@H](O[C@H]6[C@H](OC)[C@@H](OC)[C@@H](O[C@H]7[C@H](OC)[C@@H](OC)[C@@H](O[C@H]8[C@H](OC)[C@@H](OC)[C@@H](O[C@H]1[C@H](OC)[C@H]2OC)O[C@@H]8COC)O[C@@H]7COC)O[C@@H]6COC)O[C@@H]5COC)O[C@@H]4COC)O[C@@H]3COC [TRIMEB, Heptakis (2,3,6-tri-O-methyl)-β-cyclodextrin] | 7300 ± 200 | 11300 ± 300 | 14700 ± 400 | 19000 ± 200 | – | –
5 | Hydroxypropyl-γ-cyclodextrin [HPγCD] | – | – | – | – | reduction in cholesterol accumulation | –
6 | Randomly methylated β-cyclodextrin [RAMEB] | 2300 ± 300 | 5200 ± 300 | 7000 ± 400 | 9700 ± 500 | – | Effect on cell viability (metabolic activity) [4]: significant reduction in metabolic activity; Effect on cell viability (metabolic activity) [5]: significant reduction in metabolic activity
